The source of these data is patent US12098144B2, “Piperazine indazole glucocorticoid receptor antagonists” (Corcept Therapeutics Incorporated, priority 2021, dated 2024).

The assay concerns the target T1, glucocorticoid receptor (Homo sapiens, UniProt P04150).
T1 construct: endogenous in cells; ATCC cat
T1 sequence (P04150 1-777): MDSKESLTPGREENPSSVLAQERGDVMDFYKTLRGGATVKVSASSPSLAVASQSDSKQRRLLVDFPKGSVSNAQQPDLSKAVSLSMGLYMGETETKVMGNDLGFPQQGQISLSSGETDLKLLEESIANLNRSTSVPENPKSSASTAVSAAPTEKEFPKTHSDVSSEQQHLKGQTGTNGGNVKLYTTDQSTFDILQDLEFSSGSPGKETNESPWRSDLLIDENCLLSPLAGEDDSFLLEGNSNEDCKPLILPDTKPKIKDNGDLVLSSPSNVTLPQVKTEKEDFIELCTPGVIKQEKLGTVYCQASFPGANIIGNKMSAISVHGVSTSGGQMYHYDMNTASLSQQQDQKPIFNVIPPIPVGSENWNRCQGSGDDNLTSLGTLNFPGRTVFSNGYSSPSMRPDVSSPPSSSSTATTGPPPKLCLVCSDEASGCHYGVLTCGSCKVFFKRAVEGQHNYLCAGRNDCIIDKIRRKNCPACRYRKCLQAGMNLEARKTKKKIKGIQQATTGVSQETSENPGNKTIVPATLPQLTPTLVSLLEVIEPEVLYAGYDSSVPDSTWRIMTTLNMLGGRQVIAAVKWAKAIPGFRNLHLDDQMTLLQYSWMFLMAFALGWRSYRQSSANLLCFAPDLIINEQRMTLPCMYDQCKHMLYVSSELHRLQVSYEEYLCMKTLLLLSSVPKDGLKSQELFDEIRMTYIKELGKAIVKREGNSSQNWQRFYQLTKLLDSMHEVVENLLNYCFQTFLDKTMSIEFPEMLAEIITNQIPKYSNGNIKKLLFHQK
Put plainly: Hep G2 TAT Ki: inhibition of dexamethasone-induced TAT in HepG2 cells (96 well). It counts as cell-based. As to conditions: challenge of 100 nM dexamethasone, IC50 converted to Ki by Cheng and Prusoff equation. On the procedure: Glucocorticoid mediated activation of TAT occurs by transactivation of glucocorticoid response elements in the TAT promoter by glucocorticoid receptor-agonist complex.
HepG2 cells were cultured using MEME media supplemented with 10% (v/v) foetal bovine serum; 2 mM L-glutamine and 1% (v/v) NEAA at 37° C., 5%/95% (v/v) CO2/air.
Compounds were serially half log diluted in 100% (v/v) dimethylsulphoxide from a 10 mM stock.
HepG2 cells were then lysed with 30 μl of cell lysis buffer containing a protease inhibitor cocktail for 15 minutes at 4° C. […] After 2 hours incubation at 37° C. the reaction was terminated by the addition of 15 μl of 10M aqueous potassium hydroxide solution, and the plates incubated for a further 30 minutes at 37° C.
[compound] and fitting the data to a 4 parameter logistic equation.
`Cc1cc2c(cnn2-c2ccc(F)cc2)cc1C1CN(S(=O)(=O)c2cnn(C)n2)CCN1CC1CCC1` (single isomer, unassigned) [Example 77, 5-(1-(cyclobutylmethyl)-4-((2-methyl-2H-1,2,3-triazol-4-yl)sulfonyl)piperazin-2-yl)-1-(4-fluorophenyl)-6-methyl-1H-indazole] returned a Ki of 13 nM.

For `Cc1cc2c(cnn2-c2ccc(F)cc2)cc1C1CN(S(=O)(=O)c2cnn(C)n2)CCN1CC1CCCC1` (single isomer, unassigned) [Example 78, 5-(1-(cyclopentylmethyl)-4-((2-methyl-2H-1,2,3-triazol-4-yl)sulfonyl)piperazin-2-yl)-1-(4-fluorophenyl)-6-methyl-1H-indazole], the affinity, expressed as Ki, was 13 nM.

`Cc1cc2c(cnn2-c2ccc(F)cc2)cc1C1CN(S(=O)(=O)c2cnn(C)n2)CCN1CC1(F)CC1` (single isomer, unassigned) [Example 79, 5-(1-((1-fluorocyclopropyl)methyl)-4-((2-methyl-2H-1,2,3-triazol-4-yl)sulfonyl)piperazin-2-yl)-1-(4-fluorophenyl)-6-methyl-1H-indazole] showed a Ki of 29 nM.

`Cc1cc2c(cnn2-c2ccc(F)cc2)cc1C1CN(S(=O)(=O)c2cnn(C)n2)CCN1Cc1ccn(C)n1` (single isomer, unassigned) [Example 80, 1-(4-fluorophenyl)-6-methyl-5-(1-((1-methyl-1H-pyrazol-3-yl)methyl)-4-((2-methyl-2H-1,2,3-triazol-4-yl)sulfonyl)piperazin-2-yl)-1H-indazole] came in with a Ki of 150 nM.

For `Cc1cc2c(cnn2-c2ccc(F)cc2)cc1C1CN(S(=O)(=O)c2cnn(C)n2)CCN1Cc1ccon1` (single isomer, unassigned) [Example 81, 3-((2-(1-(4-fluorophenyl)-6-methyl-1H-indazol-5-yl)-4-((2-methyl-2H-1,2,3-triazol-4-yl)sulfonyl)piperazin-1-yl)methyl)isoxazole], the affinity corresponds to a Ki of 73 nM.

`Cc1cc2c(cnn2-c2ccc(F)cc2)cc1C1CN(S(=O)(=O)c2cnn(C)n2)CCN1CC(C)(C)CO` (single isomer, unassigned) [Example 82, 3-(2-(1-(4-fluorophenyl)-6-methyl-1H-indazol-5-yl)-4-((2-methyl-2H-1,2,3-triazol-4-yl)sulfonyl)piperazin-1-yl)-2,2-dimethylpropan-1-ol] gave a Ki of 43 nM.

With `Cc1cc2c(cnn2-c2ccc(F)cc2)cc1C1CN(S(=O)(=O)c2cnn(C)n2)CCN1CC1(C(F)(F)F)CC1` (single isomer, unassigned) [Example 83, 1-(4-fluorophenyl)-6-methyl-5-(4-((2-methyl-2H-1,2,3-triazol-4-yl)sulfonyl)-1-((1-(trifluoromethyl)cyclopropyl)methyl)piperazin-2-yl)-1H-indazole], the Ki was 33 nM.

Consider `Cc1cc2c(cnn2-c2ccc(F)cc2)cc1C1CN(S(=O)(=O)c2cnn(C)n2)CCN1CC1CCOC1` (single isomer, unassigned) [Example 85, 1-(4-fluorophenyl)-6-methyl-5-(4-((2-methyl-2H-1,2,3-triazol-4-yl)sulfonyl)-1-((tetrahydrofuran-3-yl)methyl)piperazin-2-yl)-1H-indazole], for which the Ki was determined as 29 nM.

`Cc1cc2c(cnn2-c2ccc(F)cc2)cc1C1CN(S(=O)(=O)c2ncn(C)n2)CCN1CC(C)C` (single isomer, unassigned) [Example 92, 1-(4-fluorophenyl)-5-(1-isobutyl-4-((1-methyl-1H-1,2,4-triazol-3-yl)sulfonyl)piperazin-2-yl)-6-methyl-1H-indazole] came in with a Ki of 86 nM.

`Cc1cc2c(cnn2-c2ccc(F)cc2)cc1C1CN(S(=O)(=O)c2nn(C)nc2C)CCN1CC(C)C` (single isomer, unassigned) [Example 93, 5-(4-((2,5-dimethyl-2H-1,2,3-triazol-4-yl)sulfonyl)-1-isobutylpiperazin-2-yl)-1-(4-fluorophenyl)-6-methyl-1H-indazole] returned a Ki of 36 nM.

The compound `Cc1cc2c(cnn2-c2ccc(F)cc2)cc1C1CN(S(=O)(=O)c2nncn2C)CCN1CC(C)C` (single isomer, unassigned) [Example 94, 1-(4-fluorophenyl)-5-(1-isobutyl-4-((4-methyl-4H-1,2,4-triazol-3-yl)sulfonyl)piperazin-2-yl)-6-methyl-1H-indazole] displayed a Ki of 74 nM.

As to `Cc1cc2c(cnn2-c2ccc(F)cc2)cc1C1CN(S(=O)(=O)c2cnn(CC(F)(F)F)n2)CCN1CC(C)C` (single isomer, unassigned) [Example 95, 1-(4-fluorophenyl)-5-(1-isobutyl-4-((2-(2,2,2-trifluoroethyl)-2H-1,2,3-triazol-4-yl)sulfonyl)piperazin-2-yl)-6-methyl-1H-indazole], the Ki amounted to 100 nM.

Turning to `Cc1cc2c(cnn2-c2ccc(F)cc2)cc1C1CN(S(=O)(=O)c2cn(CC(F)F)nc2C)CCN1CC(C)C` (single isomer, unassigned) [Example 96, 5-(4-((1-(2,2-difluoroethyl)-3-methyl-1H-pyrazol-4-yl)sulfonyl)-1-isobutylpiperazin-2-yl)-1-(4-fluorophenyl)-6-methyl-1H-indazole], affinity was put at a Ki of 43 nM.

`Cc1cc2c(cnn2-c2ccc(F)cc2)cc1C1CN(S(=O)(=O)c2cccnc2)CCN1CC(C)C` (single isomer, unassigned) [Example 97, 1-(4-fluorophenyl)-5-(1-isobutyl-4-(pyridin-3-ylsulfonyl)piperazin-2-yl)-6-methyl-1H-indazole] gave a Ki of 23 nM.

The compound `Cc1cc2c(cnn2-c2ccc(F)cc2)cc1C1CN(S(=O)(=O)c2ccc(C#N)cc2)CCN1CC(C)C` (single isomer, unassigned) [Example 98, 4-((3-(1-(4-fluorophenyl)-6-methyl-1H-indazol-5-yl)-4-isobutylpiperazin-1-yl)sulfonyl)benzonitrile] had a Ki of 25 nM.

With `Cc1nc(S(=O)(=O)N2CCN(CC(C)C)C(c3cc4cnn(-c5ccc(F)cc5)c4cc3C)C2)cs1` (single isomer, unassigned) [Example 99, 4-((3-(1-(4-fluorophenyl)-6-methyl-1H-indazol-5-yl)-4-isobutylpiperazin-1-yl)sulfonyl)-2-methylthiazole], the Ki was 19 nM.

In turn, `Cc1cc2c(cnn2-c2ccc(F)cc2)cc1C1CN(S(=O)(=O)c2c(C)nnn2C)CCN1CC(C)C` (single isomer, unassigned) [Example 100, 5-(4-((1,4-dimethyl-1H-1,2,3-triazol-5-yl)sulfonyl)-1-isobutylpiperazin-2-yl)-1-(4-fluorophenyl)-6-methyl-1H-indazole] came in with a Ki of 42 nM.

Take `Cc1cc2c(cnn2-c2ccc(F)cc2)cc1C1CN(S(=O)(=O)c2cn(C)nn2)CCN1CC(C)C` (single isomer, unassigned) [Example 101, 1-(4-fluorophenyl)-5-(1-isobutyl-4-((1-methyl-1H-1,2,3-triazol-4-yl)sulfonyl)piperazin-2-yl)-6-methyl-1H-indazole]: the affinity, expressed as Ki, was 28 nM.

Turning to `Cc1cc2c(cnn2-c2ccc(F)cc2)cc1C1CN(S(=O)(=O)c2ccc(C(F)(F)F)nc2)CCN1CC(C)C` (single isomer, unassigned) [Example 102, 1-(4-fluorophenyl)-5-(1-isobutyl-4-((6-(trifluoromethyl)pyridin-3-yl)sulfonyl)piperazin-2-yl)-6-methyl-1H-indazole], the Ki stood at 39 nM.

Take `COc1ccc(S(=O)(=O)N2CCN(CC(C)C)C(c3cc4cnn(-c5ccc(F)cc5)c4cc3C)C2)cn1` (single isomer, unassigned) [Example 103, 1-(4-fluorophenyl)-5-(1-isobutyl-4-((6-methoxypyridin-3-yl)sulfonyl)piperazin-2-yl)-6-methyl-1H-indazole]: affinity was put at a Ki of 35 nM.

Regarding `Cc1ccc(S(=O)(=O)N2CCN(CC(C)C)C(c3cc4cnn(-c5ccc(F)cc5)c4cc3C)C2)cn1` (single isomer, unassigned) [Example 104, 1-(4-fluorophenyl)-5-(1-isobutyl-4-((6-methylpyridin-3-yl)sulfonyl)piperazin-2-yl)-6-methyl-1H-indazole], the Ki came to 19 nM.

As to `Cc1cc2c(cnn2-c2ccc(F)cc2)cc1C1CN(S(=O)(=O)c2cccnc2C(F)(F)F)CCN1CC(C)C` (single isomer, unassigned) [Example 105, 1-(4-fluorophenyl)-5-(1-isobutyl-4-((2-(trifluoromethyl)pyridin-3-yl)sulfonyl)piperazin-2-yl)-6-methyl-1H-indazole], the Ki was found to be 46 nM.
